Measurements taken from ChEMBL document CHEMBL1201862, “PubChem BioAssay data set” (2004).
Calls of active or inactive are those of the source.

Tests used:
[1] = target: Voltage-gated inwardly rectifying potassium channel KCNH2 (Homo sapiens, UniProt Q12809); conditions: Potency;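 also: confirmatory quantitative high-throughput screen measuring inhibition of hERG channel activity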
HEK293 [2] = test: cells; format: functional, cell-based; conditions: Homo sapiens
[3] = target: T1, Nuclear receptor subfamily 0 group B member 1 (Homo sapiens, UniProt P51843); test: Luminescence-based cell-based high throughput dose response assay for inhibitors of the orphan nuclear receptor subfamily 0, group B, member 1 (DAX1; NR0B1). [Related pubchem assays (depositor defined):AID504766, AID504790]; format: functional
T1 sequence (P51843 whole entry): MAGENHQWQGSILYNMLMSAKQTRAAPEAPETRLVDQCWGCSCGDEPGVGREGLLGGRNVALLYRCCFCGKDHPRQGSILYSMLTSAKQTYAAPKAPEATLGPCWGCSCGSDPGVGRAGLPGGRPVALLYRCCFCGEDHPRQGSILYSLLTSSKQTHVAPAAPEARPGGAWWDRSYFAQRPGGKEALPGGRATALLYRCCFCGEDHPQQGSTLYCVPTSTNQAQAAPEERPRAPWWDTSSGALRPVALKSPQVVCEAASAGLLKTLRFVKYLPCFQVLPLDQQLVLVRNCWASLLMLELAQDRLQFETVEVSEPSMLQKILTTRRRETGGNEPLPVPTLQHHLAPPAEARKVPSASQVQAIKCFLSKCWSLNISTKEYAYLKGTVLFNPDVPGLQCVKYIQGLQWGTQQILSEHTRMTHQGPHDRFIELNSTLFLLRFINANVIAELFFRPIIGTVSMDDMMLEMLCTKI

Genome polyprotein = Genome polyprotein (dengue virus type 2, UniProt P29990); test: Dengue-2 NS5 methyltransferase inhibitors, primary screen, biochemical, confirmation dose response (AID 588689); format: functional
Sequence of Genome polyprotein (P29990 2492-3391 limits assumed): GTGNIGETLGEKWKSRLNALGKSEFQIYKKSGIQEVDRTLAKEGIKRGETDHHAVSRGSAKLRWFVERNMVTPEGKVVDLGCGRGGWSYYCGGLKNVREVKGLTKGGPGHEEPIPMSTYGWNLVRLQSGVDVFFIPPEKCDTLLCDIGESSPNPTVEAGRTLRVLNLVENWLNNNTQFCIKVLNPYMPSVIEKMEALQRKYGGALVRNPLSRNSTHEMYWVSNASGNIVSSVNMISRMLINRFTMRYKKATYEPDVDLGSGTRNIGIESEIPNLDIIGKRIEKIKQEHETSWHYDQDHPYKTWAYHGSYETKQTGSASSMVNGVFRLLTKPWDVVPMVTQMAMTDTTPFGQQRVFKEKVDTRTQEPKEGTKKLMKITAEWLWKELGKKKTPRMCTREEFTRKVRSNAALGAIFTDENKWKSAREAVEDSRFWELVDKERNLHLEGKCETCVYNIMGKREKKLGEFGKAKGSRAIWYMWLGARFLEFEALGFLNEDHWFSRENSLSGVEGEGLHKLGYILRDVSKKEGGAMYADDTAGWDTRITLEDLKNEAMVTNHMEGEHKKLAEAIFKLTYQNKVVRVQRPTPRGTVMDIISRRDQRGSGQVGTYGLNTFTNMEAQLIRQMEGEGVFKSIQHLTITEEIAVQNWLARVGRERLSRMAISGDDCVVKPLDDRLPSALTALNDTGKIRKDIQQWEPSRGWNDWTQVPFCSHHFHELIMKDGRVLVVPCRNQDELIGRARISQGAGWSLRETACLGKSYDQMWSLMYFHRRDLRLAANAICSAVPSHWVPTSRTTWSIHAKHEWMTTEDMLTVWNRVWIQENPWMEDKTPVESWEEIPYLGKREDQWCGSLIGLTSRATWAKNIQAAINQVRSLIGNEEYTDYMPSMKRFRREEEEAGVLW

Phospholipase A2 = Phospholipase A2 (Homo sapiens, UniProt P04054); format: functional;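 also: confirmatory dose-response counterscreen on phospholipase A2, testing hits that came from an ultra-high-throughput screen for ATG4B inhibitors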
Sequence of Phospholipase A2 (P04054 whole entry): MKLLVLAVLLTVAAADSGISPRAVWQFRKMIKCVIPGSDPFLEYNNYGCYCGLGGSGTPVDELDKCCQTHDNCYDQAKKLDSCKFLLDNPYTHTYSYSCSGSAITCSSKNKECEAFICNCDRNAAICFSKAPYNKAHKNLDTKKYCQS

Cysteine protease ATG4B = Cysteine protease ATG4B (Homo sapiens, UniProt Q9Y4P1); format: functional;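 also: Fluorescence-based dose-response confirmation assay measuring inhibition of ATG4B activity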
Sequence of Cysteine protease ATG4B (Q9Y4P1 whole entry): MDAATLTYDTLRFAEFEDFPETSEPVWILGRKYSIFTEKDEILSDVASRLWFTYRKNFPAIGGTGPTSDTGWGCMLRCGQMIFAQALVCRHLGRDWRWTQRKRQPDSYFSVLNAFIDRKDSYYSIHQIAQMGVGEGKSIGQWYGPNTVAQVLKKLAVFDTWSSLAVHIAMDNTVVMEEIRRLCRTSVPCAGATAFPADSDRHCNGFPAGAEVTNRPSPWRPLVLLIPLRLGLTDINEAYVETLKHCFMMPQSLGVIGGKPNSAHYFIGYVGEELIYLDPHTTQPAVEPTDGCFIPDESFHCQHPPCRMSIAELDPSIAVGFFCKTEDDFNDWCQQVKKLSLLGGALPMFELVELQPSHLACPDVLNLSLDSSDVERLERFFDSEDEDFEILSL

[4] = target: T2, Short transient receptor potential channel 4 (Mus musculus, UniProt Q9QUQ5); test: mouse TRPC4 channel inhibitors, dose response, cell-based, HEK293 TRPC4/mu-opioid, Fluo-4 calcium (AID 434942); format: functional;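 also: potency of inhibitors blocking the TRPC4 calcium response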
T2 sequence (Q9QUQ5 whole entry): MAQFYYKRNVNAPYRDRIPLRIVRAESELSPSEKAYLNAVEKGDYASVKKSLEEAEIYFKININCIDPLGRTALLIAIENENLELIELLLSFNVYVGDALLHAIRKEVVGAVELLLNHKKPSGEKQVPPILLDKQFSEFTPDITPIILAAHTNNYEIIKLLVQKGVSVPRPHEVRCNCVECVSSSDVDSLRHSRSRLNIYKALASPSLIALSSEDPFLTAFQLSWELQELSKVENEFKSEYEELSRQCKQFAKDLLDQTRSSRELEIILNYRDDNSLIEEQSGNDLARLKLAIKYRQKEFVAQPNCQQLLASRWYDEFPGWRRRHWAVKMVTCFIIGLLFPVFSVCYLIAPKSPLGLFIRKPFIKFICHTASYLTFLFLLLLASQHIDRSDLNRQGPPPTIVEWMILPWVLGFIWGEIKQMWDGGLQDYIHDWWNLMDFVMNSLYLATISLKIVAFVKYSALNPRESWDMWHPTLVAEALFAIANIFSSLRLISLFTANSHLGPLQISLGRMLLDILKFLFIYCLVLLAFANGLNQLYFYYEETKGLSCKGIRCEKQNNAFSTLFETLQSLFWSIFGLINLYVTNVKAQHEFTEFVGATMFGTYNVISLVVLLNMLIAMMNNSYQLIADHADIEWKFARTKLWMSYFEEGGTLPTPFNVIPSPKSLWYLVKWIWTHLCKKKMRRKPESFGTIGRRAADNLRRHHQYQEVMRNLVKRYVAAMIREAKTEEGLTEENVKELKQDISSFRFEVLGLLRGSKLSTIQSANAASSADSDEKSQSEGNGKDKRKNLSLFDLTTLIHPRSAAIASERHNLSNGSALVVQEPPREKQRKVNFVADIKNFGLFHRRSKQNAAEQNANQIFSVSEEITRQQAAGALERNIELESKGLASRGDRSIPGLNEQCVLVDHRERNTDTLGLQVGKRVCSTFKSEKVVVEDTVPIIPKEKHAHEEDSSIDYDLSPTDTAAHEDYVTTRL

[5] = inhibitors of firefly luciferase expression or activity, dose response, H4 neuroglioma cells, luminescence (AID 1990); format: functional, cell-based
[6] = inhibitors of SNCA 5'UTR-driven reporter translation, confirmation, H4 neuroglioma cells, luminescence (AID 1988); format: functional, cell-based
HEK293 [7] = test: inhibitors of LMP1-driven NF-kB reporter, dose response, cell-based, HEK293, luciferase, cherry-pick (AID 588343); format: functional; conditions: Homo sapiens
cells [8] = format: functional, cell-based
[9] = insulin promoter down-regulators in MIN6 cells, imaging, high-content screening, mouse beta cells (AID 1628); format: functional
[10] = cytotoxicity in MIN6 insulinoma cells, dose response, cytotoxicity control, cell-based, mouse insulinoma (AID 2122); format: functional;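 also: confirmatory high-throughput counterscreen run to flag cytotoxic compounds; mouse MIN-6 beta cells carrying an insulin promoter eGFP reporter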
[11] = target: Heat shock protein HSP 90-alpha (Homo sapiens, UniProt P07900); format: functional, organism-based
[12] = inhibitors of intracellular T. cruzi replication, confirmation, NIH3T3 host cells, beta-gal luminescence (AID 2044); format: functional, cell-based;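 also: intracellular parasites grown in NIH/3T3 mouse fibroblasts as host cells; luminescent beta-galactosidase reporter signal from transgenic T. cruzi replicating inside host cells; inhibitors lower the luminescence signal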
[13] = target: T3, Latent membrane protein 1 (Human herpesvirus 4 (strain B95-8), UniProt P03230); test: TES1-eGFP NF-kB reporter inhibition versus Tet-On dsRED, dose response, selectivity assay for LMP1 NF-kB inhibitor project, imaging, HEK293T, dual-color eGFP/dsRED, cherry-picks (AID 588398); format: functional, cell-based
T3 sequence (P03230 whole entry): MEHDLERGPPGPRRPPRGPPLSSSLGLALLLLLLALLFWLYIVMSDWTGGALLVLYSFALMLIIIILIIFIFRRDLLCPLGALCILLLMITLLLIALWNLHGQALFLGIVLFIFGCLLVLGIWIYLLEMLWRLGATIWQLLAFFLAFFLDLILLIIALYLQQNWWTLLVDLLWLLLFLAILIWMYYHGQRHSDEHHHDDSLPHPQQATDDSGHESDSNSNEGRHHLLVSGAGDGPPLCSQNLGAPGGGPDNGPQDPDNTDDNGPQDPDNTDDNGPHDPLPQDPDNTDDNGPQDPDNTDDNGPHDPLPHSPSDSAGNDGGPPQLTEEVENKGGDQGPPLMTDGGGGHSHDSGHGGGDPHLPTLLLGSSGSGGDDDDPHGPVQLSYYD

cells [14] = format: functional, cell-based; remark: listed apart in the source
[15] = cytotoxicity toward NIH3T3 fibroblasts, dose response, counter-screen, cell-based, ATP luminescence, mouse fibroblasts (AID 2010); format: functional;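 also: cells exposed to compound for about 90 hours before reading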
[16] = Luminescence Cell-Based Dose Response HTS to Identify Inhibitors of 5'UTR Stem-Loop Driven Prion Protein mRNA Translation in H4 Neuroglioblastoma Cells. [Related pubchem assays: 1827 (Project Summary), 1813 (Primary HTS)]; format: functional
CAAX prenyl protease 2 [17] = target: T4, CAAX prenyl protease 2 (Saccharomyces cerevisiae S288c, UniProt Q03530); format: biochemical
T4 sequence (Q03530 whole entry): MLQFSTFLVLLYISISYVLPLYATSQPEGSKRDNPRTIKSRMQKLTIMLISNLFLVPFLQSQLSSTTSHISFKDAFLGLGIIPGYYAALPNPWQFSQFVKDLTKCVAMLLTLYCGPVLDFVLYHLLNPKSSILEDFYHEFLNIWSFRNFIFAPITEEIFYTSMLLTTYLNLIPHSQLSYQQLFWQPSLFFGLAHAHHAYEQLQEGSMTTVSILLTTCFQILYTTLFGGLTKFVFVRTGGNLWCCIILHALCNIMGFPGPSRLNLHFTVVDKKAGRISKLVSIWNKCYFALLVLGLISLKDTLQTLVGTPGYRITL

Trypsin = Trypsin (Sus scrofa, UniProt P00761); test: porcine trypsin inhibitors, dose response, selectivity assay for Rce1 protease inhibitor project, biochemical, quenched peptide fluorescence, cherry-pick (AID 488789)
Sequence of Trypsin (P00761 whole entry): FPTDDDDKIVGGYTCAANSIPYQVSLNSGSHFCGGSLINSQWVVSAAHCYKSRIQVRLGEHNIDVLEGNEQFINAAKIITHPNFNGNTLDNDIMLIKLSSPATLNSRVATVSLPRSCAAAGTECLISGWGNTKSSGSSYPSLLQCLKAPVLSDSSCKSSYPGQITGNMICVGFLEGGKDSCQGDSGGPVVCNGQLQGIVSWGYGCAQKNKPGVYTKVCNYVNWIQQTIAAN

CAAX prenyl protease 2 [18] = target: CAAX prenyl protease 2 (Homo sapiens, UniProt Q9Y256); test: human Rce1 protease inhibitors, dose response, biochemical, yeast membranes, quenched-peptide fluorescence, cherry-pick (AID 588849)
Sequence of CAAX prenyl protease 2 (Homo sapiens, UniProt Q9Y256) (Q9Y256 whole entry): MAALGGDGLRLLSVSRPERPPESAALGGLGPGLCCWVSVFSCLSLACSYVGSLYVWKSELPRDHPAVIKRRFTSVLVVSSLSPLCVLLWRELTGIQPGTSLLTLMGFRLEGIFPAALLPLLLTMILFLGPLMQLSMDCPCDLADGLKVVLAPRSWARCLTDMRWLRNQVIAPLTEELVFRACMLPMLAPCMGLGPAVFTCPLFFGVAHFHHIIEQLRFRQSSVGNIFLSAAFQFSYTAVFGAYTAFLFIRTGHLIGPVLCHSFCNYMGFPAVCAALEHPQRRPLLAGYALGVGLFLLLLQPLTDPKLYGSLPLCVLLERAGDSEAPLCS

A-375 [19] = test: A375 melanoma cell viability reduction, dose response, counter-screen for MITF modulator project, cherry-pick samples, set 2 (AID 540335); format: functional, cell-based; conditions: Homo sapiens
A-375 [20] = test: MITF: Counter assay: A375 proliferation Measured in Cell-Based System Using Plate Reader - 2084-03_Inhibitor_Dose_DryPowder_Activity. [Related pubchem assays (depositor defined):AID488944]; format: functional; conditions: Homo sapiens
Beta-galactosidase = Beta-galactosidase (Escherichia coli, UniProt Q8VNN2); test: PubChem AID 485352; format: functional
Sequence of Beta-galactosidase (Q8VNN2 whole entry): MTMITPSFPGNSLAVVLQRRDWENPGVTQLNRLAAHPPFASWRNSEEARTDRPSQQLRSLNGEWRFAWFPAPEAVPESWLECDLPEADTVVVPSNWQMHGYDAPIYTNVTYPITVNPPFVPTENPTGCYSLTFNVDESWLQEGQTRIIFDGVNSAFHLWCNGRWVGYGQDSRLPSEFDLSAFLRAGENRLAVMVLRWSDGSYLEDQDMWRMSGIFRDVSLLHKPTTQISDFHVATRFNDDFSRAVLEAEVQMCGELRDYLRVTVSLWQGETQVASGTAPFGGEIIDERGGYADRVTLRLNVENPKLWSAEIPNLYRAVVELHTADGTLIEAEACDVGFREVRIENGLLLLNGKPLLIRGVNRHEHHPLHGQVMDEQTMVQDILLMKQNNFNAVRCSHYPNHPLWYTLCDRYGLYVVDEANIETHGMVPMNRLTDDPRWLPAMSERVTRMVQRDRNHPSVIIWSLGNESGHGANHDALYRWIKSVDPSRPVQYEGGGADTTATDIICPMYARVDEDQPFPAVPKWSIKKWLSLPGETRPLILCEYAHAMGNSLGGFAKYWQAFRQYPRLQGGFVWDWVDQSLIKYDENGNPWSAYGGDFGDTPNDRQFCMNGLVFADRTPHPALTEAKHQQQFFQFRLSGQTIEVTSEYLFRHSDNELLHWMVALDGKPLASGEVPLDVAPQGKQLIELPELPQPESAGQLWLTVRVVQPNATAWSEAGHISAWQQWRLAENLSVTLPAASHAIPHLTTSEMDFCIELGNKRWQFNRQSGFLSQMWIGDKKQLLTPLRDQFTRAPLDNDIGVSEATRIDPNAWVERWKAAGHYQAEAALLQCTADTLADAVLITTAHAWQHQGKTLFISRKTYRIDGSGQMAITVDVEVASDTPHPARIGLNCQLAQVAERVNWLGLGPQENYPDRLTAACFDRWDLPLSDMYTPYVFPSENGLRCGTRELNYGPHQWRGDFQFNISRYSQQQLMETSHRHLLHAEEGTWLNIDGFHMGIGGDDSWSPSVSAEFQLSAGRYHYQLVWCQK

[21] = target: T5, Type-1 angiotensin II receptor (Homo sapiens, UniProt P30556); test: AT1 receptor antagonists, dose response, selectivity assay for APJ receptor antagonist project, cell-based, uHTS hits (AID 463214); format: functional;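 also: antagonist potency against angiotensin II stimulated AT1 response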
T5 sequence (P30556 whole entry): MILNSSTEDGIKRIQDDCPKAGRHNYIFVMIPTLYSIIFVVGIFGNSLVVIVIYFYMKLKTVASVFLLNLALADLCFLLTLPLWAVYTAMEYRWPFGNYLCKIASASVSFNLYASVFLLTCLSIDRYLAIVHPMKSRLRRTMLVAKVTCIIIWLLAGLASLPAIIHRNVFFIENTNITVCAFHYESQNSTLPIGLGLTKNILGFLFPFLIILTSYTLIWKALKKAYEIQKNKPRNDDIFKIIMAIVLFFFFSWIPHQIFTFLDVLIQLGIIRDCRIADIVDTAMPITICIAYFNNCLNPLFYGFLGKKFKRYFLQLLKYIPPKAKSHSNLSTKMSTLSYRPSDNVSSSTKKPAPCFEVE

[22] = ARNT/TACC3 interaction disruptors, potency, confirmation, biochemical, AlphaScreen, cherry-picked samples (AID 651703); format: functional, Homo sapiens;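 also: His-tagged ARNT PAS-B domain paired with GST-TACC3 E629A dimer coactivator fragment; potency of inhibitors that break up the complex and lower AlphaScreen signal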

Sequence of Voltage-gated inwardly rectifying potassium channel KCNH2 (Q12809 whole entry): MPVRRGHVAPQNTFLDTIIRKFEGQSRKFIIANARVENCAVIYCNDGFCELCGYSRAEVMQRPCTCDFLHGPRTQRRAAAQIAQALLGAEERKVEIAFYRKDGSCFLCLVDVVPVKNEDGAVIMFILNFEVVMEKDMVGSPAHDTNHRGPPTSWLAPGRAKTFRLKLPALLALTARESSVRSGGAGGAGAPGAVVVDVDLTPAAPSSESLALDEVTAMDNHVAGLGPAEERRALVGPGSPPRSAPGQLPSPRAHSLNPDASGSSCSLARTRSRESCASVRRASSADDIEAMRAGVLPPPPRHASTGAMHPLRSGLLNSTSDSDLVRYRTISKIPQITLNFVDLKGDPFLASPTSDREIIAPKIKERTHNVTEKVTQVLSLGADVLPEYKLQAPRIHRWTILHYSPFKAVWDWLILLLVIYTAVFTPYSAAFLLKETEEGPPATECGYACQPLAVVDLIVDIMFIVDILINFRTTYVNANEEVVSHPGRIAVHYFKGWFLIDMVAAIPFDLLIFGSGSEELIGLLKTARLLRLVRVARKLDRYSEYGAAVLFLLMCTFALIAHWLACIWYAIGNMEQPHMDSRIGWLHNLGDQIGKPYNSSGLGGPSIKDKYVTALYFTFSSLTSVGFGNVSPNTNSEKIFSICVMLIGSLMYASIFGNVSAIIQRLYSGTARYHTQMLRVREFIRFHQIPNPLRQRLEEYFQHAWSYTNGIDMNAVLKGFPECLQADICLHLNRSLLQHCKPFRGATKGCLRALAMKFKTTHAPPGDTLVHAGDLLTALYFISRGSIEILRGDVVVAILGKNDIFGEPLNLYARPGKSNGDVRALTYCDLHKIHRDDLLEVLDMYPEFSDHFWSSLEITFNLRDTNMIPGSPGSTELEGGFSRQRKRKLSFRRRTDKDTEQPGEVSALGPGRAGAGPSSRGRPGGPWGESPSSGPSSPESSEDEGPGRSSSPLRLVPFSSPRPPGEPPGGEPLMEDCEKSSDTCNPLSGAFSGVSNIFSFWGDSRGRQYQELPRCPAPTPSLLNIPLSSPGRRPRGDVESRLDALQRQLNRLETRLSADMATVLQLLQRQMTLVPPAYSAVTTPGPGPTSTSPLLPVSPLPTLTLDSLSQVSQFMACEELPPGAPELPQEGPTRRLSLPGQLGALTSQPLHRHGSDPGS

## CCCCCCCCCCCCCCC[C@H](O)[C@H](N)CO
[1]
  AC50: 35.5 µM (inconclusive)

## CC(=O)c1csc(COc2ccc(Cl)cc2)n1
HEK293 [2]
  IC50: > 67.6 µM (inactive)
[3]
  IC50: > 67.6 µM (inactive)

## Cc1ccc(/C=C2\SC(=S)N(C(Cc3ccccc3)C(=O)O)C2=O)cc1 (stereo not drawn)
Genome polyprotein
  IC50: 39.1 µM (active)
Phospholipase A2
  IC50: 10.6 µM (active)
Cysteine protease ATG4B
  IC50: 9.14 µM (active)
[4]
  EC50: 5.96 µM (active)

## CCCCCCOc1ccc(N2C(=O)CC(SC(=N)N/N=C(\C)c3cccs3)C2=O)cc1 (stereo not drawn)
Phospholipase A2
  IC50: 5.58 µM (active)
Cysteine protease ATG4B
  IC50: 9.46 µM (active)

## O=C(CCc1ccccc1)NC(c1cccs1)c1cc(Cl)c2cccnc2c1O (stereo not drawn)
[5]
  EC50: 9.65 µM (active)
[6]
  EC50: 4.12 µM (inconclusive)
HEK293 [7]
  AC50: 9.35 µM (active)
Cells [8]
  EC50: > 350 µM (not active)
[9]
  IC50: 1.77 µM (active)
[10]
  IC50: 1.78 µM (active)
[11]
  AC50: 16.9 µM (active)
[12]
  EC50: 0.536 µM (active)
[13]
  AC50: 10.2 µM (active)
Cells [14]
  EC50: 9.12 µM (active)
[15]
  EC50: 1.61 µM (active)
[16]
  EC50: 0.219 µM (active)

## COc1ccccc1CNC(=O)c1ccccc1N
CAAX prenyl protease 2 [17]
  AC50: 6.36 µM (active)
Trypsin
  AC50: 6.1 µM (active)
CAAX prenyl protease 2 [18]
  AC50: 4.31 µM (active)

## COc1ccc(C(=O)CCNc2ccc(F)cc2)cc1
Cells [14]
  EC50: > 350 µM (not active)
A-375 [19]
  AC50: > 35 µM (active)
A-375 [20]
  AC50: > 35 µM (active)

## O=C(CNC(=O)c1ccc(Br)o1)OCC(=O)c1cccc([N+](=O)[O-])c1
Beta-galactosidase
  EC50: > 40 µM (inactive)
[21]
  IC50: 27.3 µM (not active)

## Cc1ccc(/C=N/NC(=S)N2CCOCC2)cc1
[22]
  AC50: 112 µM (active)
Beta-galactosidase
  EC50: > 40 µM (inactive)
[21]
  IC50: 8.6 µM (active)

## CCOC(=O)c1cc(-c2ccc(OC)cc2)[nH]n1
A-375 [19]
  AC50: > 35 µM (active)
A-375 [20]
  AC50: > 35 µM (active)

## O=C(COc1ccc2ccc(=O)oc2c1)N1CCC(C(=O)O)(c2ccccc2)CC1
CAAX prenyl protease 2 [18]
  AC50: 98.6 µM (active)

## O=C(O)Cc1nn(Cc2ccc(Cl)cc2)c(=O)c2ccccc12
HEK293 [2]
  IC50: > 67.5 µM (inactive)
[3]
  IC50: > 67.5 µM (inactive)

## CC/C=C/C/C=C/C/C=C/CCCCCCCC(=O)OCC
[1]
  AC50: 28.2 µM (inconclusive)
